Target: human CXCR3-A receptor (Homo sapiens (Human), UniProt P49682)
Assay: 125I-CXCL10 competition radioligand binding assay;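 note: One-hour incubation of membranes with tracer, bound radioligand separated by glass fibre filtration, IC50 derived from four-parameter nonlinear fit of competition curves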
Details: displacement of 125I-CXCL10 from membranes of CHO cells expressing human recombinant CXCR3-A

Chain of human CXCR3-A receptor (P49682 whole entry): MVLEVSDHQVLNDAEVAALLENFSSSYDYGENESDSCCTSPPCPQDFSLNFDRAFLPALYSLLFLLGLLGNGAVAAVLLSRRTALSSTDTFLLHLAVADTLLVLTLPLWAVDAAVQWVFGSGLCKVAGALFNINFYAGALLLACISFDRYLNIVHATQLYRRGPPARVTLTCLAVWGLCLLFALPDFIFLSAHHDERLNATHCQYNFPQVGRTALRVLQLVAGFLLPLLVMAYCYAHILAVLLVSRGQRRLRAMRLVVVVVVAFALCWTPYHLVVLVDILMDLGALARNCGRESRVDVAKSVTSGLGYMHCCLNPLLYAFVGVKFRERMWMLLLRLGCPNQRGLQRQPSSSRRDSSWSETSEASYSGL

Row | Compound | IC50 [µM]
1 | O=C(O)CC(c1ccc(Cl)c(Cl)c1)N(Cc1ccc(OCCN2C(=O)CCC2=O)c(F)c1)CC1CCCC1 (stereo not drawn) [Example 65, 3-(Cyclopentylmethyl-{4-[2-(2,5-dioxo-pyrrolidin-1-yl)-ethoxy]-3-fluoro-benzyl}-amino)-3-(3,4-dichloro-phenyl)-propionic acid] | 0.186
2 | CN1CC(=O)N(CCOc2ccc(CN(CC3CCCC3)[C@H](CC(=O)O)c3ccc(Cl)cc3)cc2Cl)C1=O [Example 201, (R)-3-({3-Chloro-4-[2-(3-methyl-2,5-dioxo-imidazolidin-1-yl)-ethoxy]-benzyl}-cyclopentylmethyl-amino)-3-(4-chloro-phenyl)-propionic acid] | 0.886
3 | CCCN(Cc1ccc(OCCN2C(=O)CCC2=O)c(Cl)c1)C(CC(=O)O)c1ccc(Cl)c(F)c1 (stereo not drawn) [Example 105, 3-({3-Chloro-4-[2-(2,5-dioxo-pyrrolidin-1-yl)-ethoxy]-benzyl}-propyl-amino)-3-(4-chloro-3-fluoro-phenyl)-propionic acid] | 0.211
4 | O=C(O)CC(c1ccc(Cl)c(F)c1)N(Cc1ccc(OCCN2C(=O)CCC2=O)c(F)c1)CC1CCCC1 (stereo not drawn) [Example 60, 3-(4-Chloro-3-fluoro-phenyl)-3-(cyclopentylmethyl-{4-[2-(2,5-dioxo-pyrrolidin-1-yl)-ethoxy]-3-fluoro-benzyl}-amino)-propionic acid] | 0.243
5 | COc1cc(CN(C)C(c2ccc(Cl)cc2)C(C)C(=O)O)ccc1OCCn1c(=O)ccn(C)c1=O (stereo not drawn) [Example 152, 3-(4-Chloro-phenyl)-3-({3-methoxy-4-[2-(3-methyl-2,6-dioxo-3,6-dihydro-2H-pyrimidin-1-yl)-ethoxy]-benzyl}-methyl-amino)-2-methyl-propionic acid] | 0.754
6 | Cc1cc(CN(CCC(F)(F)F)C(CC(=O)O)c2ccc(Cl)cc2)ccc1OCCn1c(=O)ccn(C)c1=O (stereo not drawn) [Example 129, 3-(4-Chloro-phenyl)-3-[{3-methyl-4-[2-(3-methyl-2,6-dioxo-3,6-dihydro-2H-pyrimidin-1-yl)-ethoxy]-benzyl}-(3,3,3-trifluoro-propyl)-amino]-propionic acid] | 2.15
7 | CCCCN(Cc1ccc(OCCN2C(=O)CCC2=O)c(OC)c1)C(C(=O)O)c1ccc(Cl)cc1 (stereo not drawn) [Example 184] | 0.336
8 | Cc1cc(CN(CCC(F)(F)F)C(CC(=O)O)c2ccc(Cl)c(Cl)c2)ccc1OCCN1C(=O)CCC1=O (stereo not drawn) [Example 167, 3-(3,4-Dichloro-phenyl)-3-[{4-[2-(2,5-dioxo-pyrrolidin-1-yl)-ethoxy]-3-methyl-benzyl}-(3,3,3-trifluoro-propyl)-amino]-propionic acid] | 2.44
9 | CCCN(Cc1ccc(OCCN2C(=O)CCC2=O)c(CC)c1)C(c1ccc(Cl)cc1)C1(C(=O)O)CC1 (stereo not drawn) [Example 196, 1-[(4-Chloro-phenyl)-({4-[2-(2,5-dioxo-pyrrolidin-1-yl)-ethoxy]-3-ethyl-benzyl}-propyl-amino)-methyl]-cyclopropanecarboxylic acid] | 0.63
10 | CCc1cc(CN(CC2CCCCC2)C(CC(=O)O)c2ccc(Cl)c(Cl)c2)ccc1OCCN1C(=O)CCC1=O (stereo not drawn) [Example 101, 3-(Cyclohexylmethyl-{4-[2-(2,5-dioxo-pyrrolidin-1-yl)-ethoxy]-3-ethyl-benzyl}-amino)-3-(3,4-dichloro-phenyl)-propionic acid] | 0.292
11 | CCc1cc(CN(CC(C)C)C(CC(=O)O)c2ccc(Cl)c(Cl)c2)ccc1OCCN1C(=O)CCC1=O (stereo not drawn) [Example 98, 3-(3,4-Dichloro-phenyl)-3-({4-[2-(2,5-dioxo-pyrrolidin-1-yl)-ethoxy]-3-ethyl-benzyl}-isobutyl-amino)-propionic acid] | 0.13
12 | CCCN(Cc1ccc(OCCN2C(=O)CCC2=O)c(F)c1)C(CC(=O)O)c1ccc(Cl)c(Cl)c1 (stereo not drawn) [Example 62, 3-(3,4-Dichloro-phenyl)-3-({4-[2-(2,5-dioxo-pyrrolidin-1-yl)-ethoxy]-3-fluoro-benzyl}-propyl-amino)-propionic acid] | 0.503
13 | COc1cc(CN(CC(C)C)C(CC(=O)O)c2ccc(Cl)cc2)ccc1CCCN1C(=O)CCC1=O (stereo not drawn) [Example 134, 3-(4-Chloro-phenyl)-3-({4-[3-(2,5-dioxo-pyrrolidin-1-yl)-propyl]-3-methoxy-benzyl}-isobutyl-amino)-propionic acid] | 0.296
14 | O=C(O)CC(c1ccc(Cl)c(F)c1)N(Cc1ccc(OCCN2C(=O)CCC2=O)c(F)c1)CC1CCCCC1 (stereo not drawn) [Example 61, 3-(4-Chloro-3-fluoro-phenyl)-3-(cyclohexylmethyl-{4-[2-(2,5-dioxo-pyrrolidin-1-yl)-ethoxy]-3-fluoro-benzyl}-amino)-propionic acid] | 0.334

The next compounds have a lower IC50 than those just listed; values first:

Row | IC50 [µM] | Compound
15 | 0.076 | CCCCN(Cc1ccc(OCCn2c(=O)ccn(C)c2=O)c(C)c1)C(CC(=O)O)c1ccc2c(c1)CCO2 (stereo not drawn) [Example 161, 3-(Butyl-{3-methyl-4-[2-(3-methyl-2,6-dioxo-3,6-dihydro-2H-pyrimidin-1-yl)-ethoxy]-benzyl}-amino)-3-(2,3-dihydro-benzofuran-5-yl)-propionic acid]
16 | 0.061 | CCCCN(Cc1ccc(OCCN2C(=O)CCC2=O)c(OC)c1)C(CC(=O)O)c1ccc(Cl)c(Cl)c1 (stereo not drawn) [Example 48, 3-(Butyl-{4-[2-(2,5-dioxo-pyrrolidin-1-yl)-ethoxy]-3-methoxy-benzyl}-amino)-3-(3,4-dichloro-phenyl)-propionic acid]
17 | 0.12 | COc1cc(CN(CC2CCCC2)C(CC(=O)O)c2ccc(Cl)cc2Cl)ccc1OCCN1C(=O)CCC1=O (stereo not drawn) [Example 3, 3-(Cyclopentylmethyl-{4-[2-(2,5-dioxo-pyrrolidin-1-yl)-ethoxy]-3-methoxy-benzyl}-amino)-3-(2,4-dichloro-phenyl)-propionic acid]
18 | 0.012 | CCc1cc(CN(CC(C)C)C(CC(=O)O)c2ccc(Cl)cc2)ccc1OCCN1C(=O)CCC1=O (stereo not drawn) [Example 86, 3-(4-Chloro-phenyl)-3-({4-[2-(2,5-dioxo-pyrrolidin-1-yl)-ethoxy]-3-ethyl-benzyl}-isobutyl-amino)-propionic acid]
19 | 0.062 | COc1cc(CN(CC2CCCC2)C(CC(=O)O)c2ccc(Cl)c(F)c2)ccc1SCCN1C(=O)CCC1=O (stereo not drawn) [Example 190, 3-(4-Chloro-3-fluoro-phenyl)-3-(cyclopentylmethyl-{4-[2-(2,5-dioxo-pyrrolidin-1-yl)-ethylsulfanyl]-3-methoxy-benzyl}-amino)-propionic acid]
20 | 0.02 | COc1cc(CN(CC2CC2)C(CC(=O)O)c2ccc(Cl)cc2)ccc1OCCN1C(=O)CCC1=O (stereo not drawn) [Example 36, 3-(4-Chloro-phenyl)-3-(cyclopropylmethyl-{4-[2-(2,5-dioxo-pyrrolidin-1-yl)-ethoxy]-3-methoxy-benzyl}-amino)-propionic acid]
21 | 0.071 | COc1cc(CN(CC2CCCC2)C(CC(=O)O)c2ccc(Cl)cc2)ccc1OCCN1C(=O)CCC1=O (stereo not drawn) [Example 39, 3-(4-Chloro-phenyl)-3-(cyclopentylmethyl-{4-[2-(2,5-dioxo-pyrrolidin-1-yl)-ethoxy]-3-methoxy-benzyl}-amino)-propionic acid]
22 | 0.116 | CCCN(Cc1ccc(OCCN2C(=O)CCC2=O)c(C)c1)C(CC(=O)O)c1ccc(Cl)c(Cl)c1 (stereo not drawn) [Example 79, 3-(3,4-Dichloro-phenyl)-3-({4-[2-(2,5-dioxo-pyrrolidin-1-yl)-ethoxy]-3-methyl-benzyl}-propyl-amino)-propionic acid]
23 | 0.03 | COc1cc(CN(CC2CC2)C(CC(=O)O)c2ccc(Cl)c(Cl)c2)ccc1OCCn1c(=O)ccn(C)c1=O (stereo not drawn) [Example 124, 3-(Cyclopropylmethyl-{3-methoxy-4-[2-(3-methyl-2,6-dioxo-3,6-dihydro-2H-pyrimidin-1-yl)-ethoxy]-benzyl}-amino)-3-(3,4-dichloro-phenyl)-propionic acid]
24 | 0.05 | CCc1cc(CN(CC2CC2)C(CC(=O)O)c2ccc(Cl)c(F)c2)ccc1OCCN1C(=O)CCC1=O (stereo not drawn) [Example 90, 3-(4-Chloro-3-fluoro-phenyl)-3-(cyclopropylmethyl-{4-[2-(2,5-dioxo-pyrrolidin-1-yl)-ethoxy]-3-ethyl-benzyl}-amino)-propionic acid]
25 | 0.078 | CCc1cc(CN(CC2CC2)C(CC(=O)O)c2ccc(Cl)c(Cl)c2)ccc1OCCN1C(=O)CCC1=O (stereo not drawn) [Example 96, 3-(Cyclopropylmethyl-{4-[2-(2,5-dioxo-pyrrolidin-1-yl)-ethoxy]-3-ethyl-benzyl}-amino)-3-(3,4-dichloro-phenyl)-propionic acid]
26 | 0.118 | COc1cc(CN(CC2CCCCC2)C(CC(=O)O)c2ccc3c(c2)CCO3)ccc1OCCn1c(=O)ccn(C)c1=O (stereo not drawn) [Example 128, 3-(Cyclohexylmethyl-{3-methoxy-4-[2-(3-methyl-2,6-dioxo-3,6-dihydro-2H-pyrimidin-1-yl)-ethoxy]-benzyl}-amino)-3-(2,3-dihydro-benzofuran-5-yl)-propionic acid]
27 | 0.072 | Cc1cc(CN(CC2CCCCC2)C(CC(=O)O)c2ccc(Cl)c(F)c2)ccc1OCCN1C(=O)CCC1=O (stereo not drawn) [Example 78, 3-(4-Chloro-3-fluoro-phenyl)-3-(cyclohexylmethyl-{4-[2-(2,5-dioxo-pyrrolidin-1-yl)-ethoxy]-3-methyl-benzyl}-amino)-propionic acid]
28 | 0.071 | CCc1cc(CN(CC2CCCC2)C(CC(=O)O)c2ccc(Cl)c(F)c2)ccc1OCCN1C(=O)CCC1=O (stereo not drawn) [Example 94, 3-(4-Chloro-3-fluoro-phenyl)-3-(cyclopentylmethyl-{4-[2-(2,5-dioxo-pyrrolidin-1-yl)-ethoxy]-3-ethyl-benzyl}-amino)-propionic acid]
29 | 0.086 | Cc1cc(CN(CC2CC2)[C@H](CC(=O)O)c2ccc(Cl)c(Cl)c2)ccc1OCCN1C(=O)CCC1=O [Example 27, (R)-3-(Cyclopropylmethyl-{4-[2-(2,5-dioxo-pyrrolidin-1-yl)-ethoxy]-3-methyl-benzyl}-amino)-3-(3,4-dichloro-phenyl)-propionic acid]
30 | 0.109 | CCCCN(Cc1ccc(OCCN2C(=O)CCC2=O)c(F)c1)C(CC(=O)O)c1ccc(Cl)c(F)c1 (stereo not drawn) [Example 59, 3-(Butyl-{4-[2-(2,5-dioxo-pyrrolidin-1-yl)-ethoxy]-3-fluoro-benzyl}-amino)-3-(4-chloro-3-fluoro-phenyl)-propionic acid]
